In patent publication US10799590B2, “Compositions containing a bitter tastant and at least one sophorolipid, and methods of reducing bitter taste attributed to a bitter tastant in an edible composition” (The United States of America, as Represented by the …, priority 2015, dated 2020):

Tested on: cultured human fungiform taste papillae cells (HBO cells)
Assay: Calcium imaging of cultured human fungiform taste papillae (HBO) cells: response frequency, estimation of sweet potency
Assay type: cell-based
Source text: In vitro cell-based assay of sweet property. Establishment and maintenance of cultures of human fungiform taste papillae cells (HBO cells): We previously established the current proprietary protocol (Ozdener, H., et al., Chem. Senses, 31(3): 279-90 (2006); Ozdener, M. H., et al., Chem. Senses, 36(7): 601-12 (2011); Ozdener, H., et al., Isolation and culture of human fungiform taste papillae cells, J. Vis. Exp., 2012 May 17;(63):e3730) which allowed us to culture human fungiform taste papillae cells retaining their physiological and molecular characteristics for more than a year. […] The human fungiform taste papillae cells were cultured according to protocols that we have published (Ozdener et al. 2006, Ozdener et al. 2011). Human fungiform taste papillae were removed and immediately placed into an isolation solution followed by enzymatic digestion. Digested fungiform papillae were then gently minced with a surgical razor and seeded on collagen type-1 coated coverslips and incubated at 36° C. in a humidified environment containing 5% CO2. The fungiform taste papillae cells were cultured in Iscove's Modified Dulbecco's medium containing 10% fetal bovine serum, 1:5 ratio of MCDB (Molecular, Cellular, and Developmental Biology) 153 medium, and a triple cocktail of antibiotics (100 U/mL/100 μg/mL, penicillin/streptomycin, and 0.5 μg/mL fungizone). Culture medium was replaced every 5-7 days by one-third of fresh culture medium. Human fungiform taste papillae cells have been maintained in culture for a period of more than 1 year without loss of viability and with retention of the molecular and biochemical properties of acutely isolated taste cells (Ozdener et al., 2011). Calcium imaging: Cultured taste cells grown for 3-4 days glass coverslips which were loaded for 30-60 min with the calcium sensitive dye fura-2 by incubating the cells in Ringer solution (145 mM NaCl, 5 mM KCl, 1 mM MgCl2, 1 mM CaCl2, 1 mM Na-pyruvate, 20 mM Hepes-Na and Cellobiose 15 mM, pH 7.2 with osmolarity adjusted to 300-310 by 5M NaCl) supplemented with […] (Molecular Probes Inc., Eugene, Oreg.) and 10 mg/ml Pluronic® F127 (Molecular Probes Inc.). Coverslips were then placed in a recording chamber and continuously bathed with Ringer solution superfusion. Stimuli were dissolved in Ringer and then pH and osmolarity readjusted if needed. Cells were exposed to sweet ([…]), bitter mixture (PTC (phenylthiocarbamide)) 2mM+Salicin 5 mM+Denatonium 2 mM), guaifenesin (GF, 3 mM) and acetaminophen (APAP, 3 mM), and various sophorolipids stimuli: sophorose, sophorolipid palmitic acid, sophorolipid stearic acid, sophorolipid oleic acid. […]

OC[C@H]1O[C@@H](O[C@@H]2[C@@H](O)[C@H](O)[C@@H](CO)O[C@H]2O)[C@H](O)[C@@H](O)[C@@H]1O [Sophorose, 2-O-β-D-glucopyranosyl-β-D glucopyranose]
%-responsive cells (cultured human taste cells, concentration 292 uM): 16.05%
Concentration adjusted response frequency (tested at 292 uM, adjusted against sucralose 5 mM): 274.89
